{
  "source": "patent US20110039721A1",
  "about": "“METHOD FOR PREDICTION ABOUT CARCINOGENICITY OF SUBSTANCE IN RODENT” (Chemicals Evaluation and Research Institute, priority 2007, published 2011)",
  "key": {"[1]": {"settings": "classification of the substance (M+/M−); cited from earlier work"}, "rodent": {"system": "rodent", "settings": "classification of the substance (C+/C−); cited from earlier work"}, "liver": {"system": "liver", "settings": "classification of the substance (Cr+/Cr−); cited from earlier work"}, "[2]": {"system": "mRNA expressed from the genes (A) to (D) in rat liver", "experiment": "Behavior of genes (mRNA expression level, oligo-DNA microarray) in rat liver after 28-day oral administration", "format": "in vivo", "outline": "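Oral gavage, once daily × 28 days; male F344 SPF rats, 5 wk, n=4/group; vehicle controls given equal solvent volume. Liver excised day 28, total RNA purified. Significance: ≥1.5× or ≤1/1.5 of vehicle, direction concordant with other carcinogens.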"}, "[3]": {"settings": "gene group (A), Unigene No. Rn.167075"}, "[4]": {"settings": "gene group (C), Unigene No. Rn.120914"}},
  "data": [
    {"compound": "O=c1c(O)c(-c2ccc(O)c(O)c2)oc2cc(O)cc(O)c12", "note": "[TS037, Quercetin]", "values": [
      {"measurement": "Mutagenicity by Ames test", "setting": "[1]", "value": "M+"},
      {"measurement": "Carcinogenicity", "setting": "rodent", "value": "C−"},
      {"measurement": "Liver carcinogenicity", "setting": "liver", "value": "Cr−"},
      {"measurement": "Behavior of gene caused by administration of chemical substance, Gene No. 4846", "setting": "[2]; gene group (A), Unigene No. Rn.144554", "value": "−"},
      {"measurement": "Behavior of gene caused by administration of chemical substance, Gene No. 2026", "setting": "[2]; [3]", "value": "−"},
      {"measurement": "Behavior of gene caused by administration of chemical substance, Gene No. 4218", "setting": "[2]; [3]", "value": "−"},
      {"measurement": "Behavior of gene caused by administration of chemical substance, Gene No. 6182", "setting": "[2]; gene group (A), Unigene No. Rn.5834", "value": "−"},
      {"measurement": "Behavior of gene caused by administration of chemical substance, Gene No. 5600", "setting": "[2]; gene group (A), Unigene No. Rn.9836", "value": "−"},
      {"measurement": "Behavior of gene caused by administration of chemical substance, Gene No. 1494", "setting": "[2]; gene group (B), Unigene No. Rn.1430", "value": "−"},
      {"measurement": "Behavior of gene caused by administration of chemical substance, Gene No. 2045", "setting": "[2]; gene group (B), Unigene No. Rn.19329", "value": "−"},
      {"measurement": "Behavior of gene caused by administration of chemical substance, Gene No. 2203", "setting": "[2]; gene group (B), Unigene No. Rn.21240", "value": "−"},
      {"measurement": "Behavior of gene caused by administration of chemical substance, Gene No. 533", "setting": "[2]; gene group (C), Unigene No. Rn.106184", "value": "−"},
      {"measurement": "Behavior of gene caused by administration of chemical substance, Gene No. 725", "setting": "[2]; gene group (C), Unigene No. Rn.108075", "value": "−"},
      {"measurement": "Behavior of gene caused by administration of chemical substance, Gene No. 1163", "setting": "[2]; gene group (C), Unigene No. Rn.11766", "value": "−"},
      {"measurement": "Behavior of gene caused by administration of chemical substance, Gene No. 4973", "setting": "[2]; gene group (C), Unigene No. Rn.118529", "value": "−"},
      {"measurement": "Behavior of gene caused by administration of chemical substance, Gene No. 4095", "setting": "[2]; gene group (C), Unigene No. Rn.119024", "value": "−"},
      {"measurement": "Behavior of gene caused by administration of chemical substance, Gene No. 1334", "setting": "[2]; [4]", "value": "−"},
      {"measurement": "Behavior of gene caused by administration of chemical substance, Gene No. 6620", "setting": "[2]; [4]", "value": "−"},
      {"measurement": "Behavior of gene caused by administration of chemical substance, Gene No. 6303", "setting": "[2]; gene group (C), Unigene No. Rn.123063", "value": "−"},
      {"measurement": "Behavior of gene caused by administration of chemical substance, Gene No. 5878", "setting": "[2]; gene group (C), Unigene No. Rn.143213", "value": "−"},
      {"measurement": "Behavior of gene caused by administration of chemical substance, Gene No. 1131", "setting": "[2]; gene group (C), Unigene No. Rn.144946", "value": "−"},
      {"measurement": "Behavior of gene caused by administration of chemical substance, Gene No. 1562", "setting": "[2]; gene group (C), Unigene No. Rn.14744", "value": "−"},
      {"measurement": "Behavior of gene caused by administration of chemical substance, Gene No. 1741", "setting": "[2]; gene group (C), Unigene No. Rn.1647", "value": "−"},
      {"measurement": "Behavior of gene caused by administration of chemical substance, Gene No. 893", "setting": "[2]; gene group (C), Unigene No. Rn.164817", "value": "−"},
      {"measurement": "Behavior of gene caused by administration of chemical substance, Gene No. 6026", "setting": "[2]; gene group (C), Unigene No. Rn.167685", "value": "−"},
      {"measurement": "Behavior of gene caused by administration of chemical substance, Gene No. 154", "setting": "[2]; gene group (C), Unigene No. Rn.185941", "value": "−"},
      {"measurement": "Behavior of gene caused by administration of chemical substance, Gene No. 1993", "setting": "[2]; gene group (C), Unigene No. Rn.18728", "value": "−"},
      {"measurement": "Behavior of gene caused by administration of chemical substance, Gene No. 813", "setting": "[2]; gene group (C), Unigene No. Rn.201760", "value": "−"},
      {"measurement": "Behavior of gene caused by administration of chemical substance, Gene No. 2494", "setting": "[2]; gene group (C), Unigene No. Rn.23969", "value": "−"},
      {"measurement": "Behavior of gene caused by administration of chemical substance, Gene No. 2546", "setting": "[2]; gene group (C), Unigene No. Rn.24561", "value": "−"},
      {"measurement": "Behavior of gene caused by administration of chemical substance, Gene No. 3776", "setting": "[2]; gene group (C), Unigene No. Rn.43232", "value": "−"},
      {"measurement": "Behavior of gene caused by administration of chemical substance, Gene No. 3929", "setting": "[2]; gene group (C), Unigene No. Rn.4620", "value": "−"},
      {"measurement": "Behavior of gene caused by administration of chemical substance, Gene No. 1119", "setting": "[2]; gene group (C), Unigene No. Rn.9757", "value": "−"},
      {"measurement": "Behavior of gene caused by administration of chemical substance, Gene No. 6742", "setting": "[2]; gene group (C), Unigene No. Rn.9779", "value": "−"},
      {"measurement": "Behavior of gene caused by administration of chemical substance, Gene No. 5634", "setting": "[2]; gene group (C), Unigene No. Rn.9862", "value": "−"},
      {"measurement": "Behavior of gene caused by administration of chemical substance, Gene No. 5726", "setting": "[2]; gene group (D), Unigene No. Rn.9939", "value": "−"}
    ]}
  ]
}
